Columns and labels:
[1] = test system: murine pancreatic tumor (Pan02); assay: Pan02 pancreatic tumor growth in C57BL/6 mice; format: in vivo
Experimental: To obtain the data presented in FIG. 1, a murine pancreatic tumor (Pan02) was engrafted in C57BL/6 mice. When tumors reached an average size of 50-100 mm^3, tumor bearing mice were assigned to one of four experimental groups and treatment was initiated. Groups of mice received: (1) saline (control), (2) anti-PD-1 antibody (BIO X CELL®, 200 μg/dose every 3 days), (3) the β-adrenergic signaling antagonist propranolol (10 mg/kg daily by intraperitoneal injection) or (4) combination therapy. Tumor growth was monitored and graphed as relative tumor volume compared to each tumor's starting volume. […] The data accordingly indicate that the combination therapy can be effective against pancreatic tumors that are resistant to treatment with the checkpoint inhibitor alone.

4T1 breast cancer model = 4T1 breast cancer model tumor growth in BALB/c mice; format: in vivo; settings: 4T1 in BALB/c mice; propranolol started three days before anti-PD-1

CC(C)NCC(O)COc1cccc2ccccc12 (stereo not drawn) [propranolol]
tumor growth (relative tumor volume compared to starting volume) ([1]; Pan02 in C57BL/6 mice, anti-PD-1 200 μg/dose every 3 days, propranolol 10 mg/kg daily i.p., Students t-test): neither anti-PD-1 nor propranolol alone caused a statistically significant decrease in tumor growth | efficacy of anti-PD-1 checkpoint inhibition ([1]; propranolol added to anti-PD-1, Pan02 tumors in C57BL/6 mice, p<0.05): significantly improved the efficacy of anti-PD-1 checkpoint inhibition | tumor growth (absolute and relative tumor volume) (4T1 breast cancer model): neither propranolol nor anti-PD-1 mAb alone has any impact on tumor growth
